The target in the assay is T1, human Werner helicase (Uniprot Q14191, amino acids 517-1235 with L1074F point mutation), WRN-BV08 (Homo sapiens, UniProt Q14191, L1074F).
T1 construct: Uniprot Q14191, amino acids 517-1235 with L1074F point mutation; TEV cleavable 8xHis tag (C, cleaved yes); made in house; host or cells: Sf9 insect cells (baculovirus, pFastBac)
T1 sequence (Q14191 517-1235 L1074F): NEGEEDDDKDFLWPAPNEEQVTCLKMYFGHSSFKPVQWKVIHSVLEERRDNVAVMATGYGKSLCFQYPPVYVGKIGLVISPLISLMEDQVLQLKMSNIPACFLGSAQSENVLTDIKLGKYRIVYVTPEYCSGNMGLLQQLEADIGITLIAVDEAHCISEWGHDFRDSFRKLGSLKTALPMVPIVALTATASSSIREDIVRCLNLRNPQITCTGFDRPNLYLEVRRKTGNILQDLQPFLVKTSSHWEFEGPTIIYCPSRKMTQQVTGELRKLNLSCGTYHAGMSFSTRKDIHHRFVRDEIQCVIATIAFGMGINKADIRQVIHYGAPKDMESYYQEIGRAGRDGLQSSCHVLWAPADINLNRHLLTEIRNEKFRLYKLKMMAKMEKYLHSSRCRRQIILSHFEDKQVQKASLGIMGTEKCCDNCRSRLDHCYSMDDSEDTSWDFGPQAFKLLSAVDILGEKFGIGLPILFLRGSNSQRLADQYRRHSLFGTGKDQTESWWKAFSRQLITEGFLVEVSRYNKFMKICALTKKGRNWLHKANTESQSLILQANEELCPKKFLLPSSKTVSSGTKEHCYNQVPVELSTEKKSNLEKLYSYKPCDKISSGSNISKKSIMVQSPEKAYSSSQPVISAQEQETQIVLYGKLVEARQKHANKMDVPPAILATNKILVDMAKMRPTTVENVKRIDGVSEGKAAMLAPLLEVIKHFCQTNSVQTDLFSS
Nature of the assay: WRN (BV08) ADP-Glo Assay. Type of assay: biochemical.
In general, IC50 refers to the concentration needed to halve the response being measured. Take `CCc1c(N2CCN(C(=O)c3c(O)noc3C)CC2)c(=O)n2nc(C3=CCOCC3)nc2n1CC(=O)Nc1ccc(C(F)(F)F)cc1Cl` [Compound I-28, N-[2-chloro-4-(trifluoromethyl)phenyl]-2-[2-(3,6-dihydro-2H-pyran-4-yl)-5-ethyl-6-[4-(3-hydroxy-5-methyl-1,2-oxazole-4-carbonyl)piperazin-1-yl]-7-oxo-4H,7H-[1,2,4]triazolo[1,5-a]pyrimidin-4-yl]acetamide]: the IC50 is less than 0.005 µM.
In turn, `CCc1c(N2CCN(C(=O)c3cnn(C)c3)CC2)c(=O)n2nc(-c3cccnc3OC)nc2n1CC(=O)Nc1ccc(C(F)(F)F)cc1Cl` [Compound I-54, N-[2-chloro-4-(trifluoromethyl)phenyl]-2-[5-ethyl-2-(2-methoxypyridin-3-yl)-6-[4-(1-methyl-1H-pyrazole-4-carbonyl)piperazin-1-yl]-7-oxo-4H,7H-[1,2,4]triazolo[1,5-a]pyrimidin-4-yl]acetamide] had a half-maximal inhibitory concentration (IC50) of 0.005 to 0.05 µM.
As for `CCc1c(N2CCN(C(=O)c3cnn(C4CC4)c3)CC2)c(=O)n2nc(-c3ccnc(OC)c3)nc2n1CC(=O)Nc1ccc(C(F)(F)F)cc1Cl` [Compound I-60, N-[2-chloro-4-(trifluoromethyl)phenyl]-2-{6-[4-(1-cyclopropyl-1H-pyrazole-4-carbonyl)piperazin-1-yl]-5-ethyl-2-(2-methoxypyridin-4-yl)-7-oxo-4H,7H-[1,2,4]triazolo[1,5-a]pyrimidin-4-yl}acetamide], the IC50 lay within 0.005 to 0.05 µM.
For the compound `CCc1c(N2CCN(C(=O)c3ncn(C)n3)CC2)c(=O)n2nc(-c3ccnc(OC)c3)nc2n1CC(=O)Nc1ccc(C(F)(F)F)cc1Cl` [Compound I-73, N-[2-chloro-4-(trifluoromethyl)phenyl]-2-[5-ethyl-2-(2-methoxypyridin-4-yl)-6-[4-(1-methyl-1H-1,2,4-triazole-3-carbonyl)piperazin-1-yl]-7-oxo-4H,7H-[1,2,4]triazolo[1,5-a]pyrimidin-4-yl]acetamide], the IC50 is 0.005 to 0.05 µM.
Next, `CCc1c(N2CCN(C(=O)c3cnn(C)c3)CC2)c(=O)n2nc(-c3ccnc(OC4CC4)c3)nc2n1CC(=O)Nc1ccc(C(F)(F)F)cc1Cl` [Compound I-52, N-[2-chloro-4-(trifluoromethyl)phenyl]-2-[2-(2-cyclopropoxypyridin-4-yl)-5-ethyl-6-[4-(1-methyl-1H-pyrazole-4-carbonyl)piperazin-1-yl]-7-oxo-4H,7H-[1,2,4]triazolo[1,5-a]pyrimidin-4-yl]acetamide]: 0.005 to 0.05 µM.
For `CCc1c(N2CCN(C(=O)c3cnn(C)c3O)CC2)c(=O)n2nc(C3=CCOCC3)nc2n1CC(=O)Nc1ccc(C(F)(F)F)cc1Cl` [Compound I-26, N-[2-chloro-4-(trifluoromethyl)phenyl]-2-[2-(3,6-dihydro-2H-pyran-4-yl)-5-ethyl-6-[4-(5-hydroxy-1-methyl-1H-pyrazole-4-carbonyl)piperazin-1-yl]-7-oxo-4H,7H-[1,2,4]triazolo[1,5-a]pyrimidin-4-yl]acetamide], the IC50 lay within 0.005 to 0.05 µM.
For the compound `CCc1c(N2CCN(C(=O)C(C)(C)CO)CC2)c(=O)n2nc(C3=CCOCC3)nc2n1CC(=O)Nc1ccc(C(F)(F)F)cc1Cl` [Compound I-20, N-[2-chloro-4-(trifluoromethyl)phenyl]-2-[2-(3,6-dihydro-2H-pyran-4-yl)-5-ethyl-6-[4-(3-hydroxy-2,2-dimethylpropanoyl)piperazin-1-yl]-7-oxo-4H,7H-[1,2,4]triazolo[1,5-a]pyrimidin-4-yl]acetamide], the half-maximal inhibitory concentration (IC50) was in the range of 0.005 to 0.05 µM.
Consider `CCc1c(N2CCN(C(=O)C(F)F)CC2)c(=O)n2nc(-c3ccnc(OC)c3)nc2n1CC(=O)Nc1ccc(C(F)(F)F)cc1Cl` [Compound I-53, N-[2-chloro-4-(trifluoromethyl)phenyl]-2-{6-[4-(2,2-difluoroacetyl)piperazin-1-yl]-5-ethyl-2-(2-methoxypyridin-4-yl)-7-oxo-4H,7H-[1,2,4]triazolo[1,5-a]pyrimidin-4-yl}acetamide], for which the IC50 fell in the range of 0.005 to 0.05 µM.
In the case of `CCc1c(N2CCN(C(=O)c3ccnc(OC)c3O)CC2)c(=O)n2nc(C3=CCOCC3)nc2n1CC(=O)Nc1ccc(C(F)(F)F)cc1Cl` [Compound I-34, N-[2-chloro-4-(trifluoromethyl)phenyl]-2-[2-(3,6-dihydro-2H-pyran-4-yl)-5-ethyl-6-[4-(3-hydroxy-2-methoxypyridine-4-carbonyl)piperazin-1-yl]-7-oxo-4H,7H-[1,2,4]triazolo[1,5-a]pyrimidin-4-yl]acetamide], the IC50 fell in the range of 0.005 to 0.05 µM.
`CCc1c(N2CCN(C(=O)c3nn(C)cc3O)CC2)c(=O)n2nc(C3CC3)nc2n1CC(=O)Nc1ccc(C(F)(F)F)cc1Cl` [Compound I-36, N-[2-chloro-4-(trifluoromethyl)phenyl]-2-{2-cyclopropyl-5-ethyl-6-[4-(4-hydroxy-1-methyl-1H-pyrazole-3-carbonyl)piperazin-1-yl]-7-oxo-4H,7H-[1,2,4]triazolo[1,5-a]pyrimidin-4-yl}acetamide] gave a concentration for half-maximal inhibition (IC50) of 0.1 to 0.5 µM.
`CCc1c(N2CCN(C(=O)c3nc(C)cs3)CC2)c(=O)n2nc(-c3ccnc(OC)c3)nc2n1CC(=O)Nc1ccc(C(F)(F)F)cc1Cl` [Compound I-57, N-[2-chloro-4-(trifluoromethyl)phenyl]-2-[5-ethyl-2-(2-methoxypyridin-4-yl)-6-[4-(4-methyl-1,3-thiazole-2-carbonyl)piperazin-1-yl]-7-oxo-4H,7H-[1,2,4]triazolo[1,5-a]pyrimidin-4-yl]acetamide] showed an IC50 of 0.1 to 0.5 µM.
Compound `CCc1c(N2CCN(C(=O)c3c(O)cccc3F)CC2)c(=O)n2nc(C3=CCOCC3)nc2n1CC(=O)Nc1ccc(C(F)(F)F)cc1Cl` [Compound I-1, N-[2-chloro-4-(trifluoromethyl)phenyl]-2-[2-(3,6-dihydro-2H-pyran-4-yl)-5-ethyl-6-[4-(2-fluoro-6-hydroxybenzoyl)piperazin-1-yl]-7-oxo-4H,7H-[1,2,4]triazolo[1,5-a]pyrimidin-4-yl]acetamide] registered an IC50 of 0.005 to 0.05 µM.
`CCc1c(N2CCN(C(C)=O)CC2)c(=O)n2nc(-c3cnc(C(C)(C)O)s3)nc2n1CC(=O)Nc1ccc(C(F)(F)F)cc1Cl` [Compound I-87, 2-[6-(4-acetylpiperazin-1-yl)-5-ethyl-2-[2-(2-hydroxypropan-2-yl)-1,3-thiazol-5-yl]-7-oxo-4H,7H-[1,2,4]triazolo[1,5-a]pyrimidin-4-yl]-N-[2-chloro-4-(trifluoromethyl)phenyl]acetamide] returned an IC50 of 0.005 to 0.05 µM.
As to `CCc1c(N2CCN(C(=O)c3nn(C)cc3O)CC2)c(=O)n2nc(C3=CCOCC3)nc2n1CC(=O)Nc1ccc(C(F)(F)F)cc1Cl` [Compound I-12, N-[2-chloro-4-(trifluoromethyl)phenyl]-2-[2-(3,6-dihydro-2H-pyran-4-yl)-5-ethyl-6-[4-(4-hydroxy-1-methyl-1H-pyrazole-3-carbonyl)piperazin-1-yl]-7-oxo-4H,7H-[1,2,4]triazolo[1,5-a]pyrimidin-4-yl]acetamide], the IC50 was in the range of 0.005 to 0.05 µM.
Compound `CCc1c(N2CCN(C(=O)c3coc(C)n3)CC2)c(=O)n2nc(-c3ccnc(OC)c3)nc2n1CC(=O)Nc1ccc(C(F)(F)F)cc1Cl` [Compound I-75, N-[2-chloro-4-(trifluoromethyl)phenyl]-2-[5-ethyl-2-(2-methoxypyridin-4-yl)-6-[4-(2-methyl-1,3-oxazole-4-carbonyl)piperazin-1-yl]-7-oxo-4H,7H-[1,2,4]triazolo[1,5-a]pyrimidin-4-yl]acetamide] gave an IC50 of 0.005 to 0.05 µM.
For the compound `CCc1c(N2CCN(C(=O)c3cn[nH]n3)CC2)c(=O)n2nc(C3=CCOCC3)nc2n1CC(=O)Nc1ccc(C(F)(F)F)cc1Cl` [Compound I-38, N-[2-chloro-4-(trifluoromethyl)phenyl]-2-[2-(3,6-dihydro-2H-pyran-4-yl)-5-ethyl-7-oxo-6-[4-(2H-1,2,3-triazole-4-carbonyl)piperazin-1-yl]-4H,7H-[1,2,4]triazolo[1,5-a]pyrimidin-4-yl]acetamide], the IC50 is less than 0.005 µM.
The compound `CCc1c(N2CCN(C(=O)c3c(C)cnc(C)c3O)CC2)c(=O)n2nc(C3=CCOCC3)nc2n1CC(=O)Nc1ccc(C(F)(F)F)cc1Cl` [Compound I-13, N-[2-chloro-4-(trifluoromethyl)phenyl]-2-[2-(3,6-dihydro-2H-pyran-4-yl)-5-ethyl-6-[4-(3-hydroxy-2,5-dimethylpyridine-4-carbonyl)piperazin-1-yl]-7-oxo-4H,7H-[1,2,4]triazolo[1,5-a]pyrimidin-4-yl]acetamide] had an IC50 of 0.005 to 0.05 µM.
`CCc1c(N2CCN(C(=O)c3nnn[nH]3)CC2)c(=O)n2nc(C3=CCOCC3)nc2n1CC(=O)Nc1ccc(C(F)(F)F)cc1Cl` [Compound I-17, N-[2-chloro-4-(trifluoromethyl)phenyl]-2-[2-(3,6-dihydro-2H-pyran-4-yl)-5-ethyl-7-oxo-6-[4-(1H-1,2,3,4-tetrazole-5-carbonyl)piperazin-1-yl]-4H,7H-[1,2,4]triazolo[1,5-a]pyrimidin-4-yl]acetamide] registered an IC50 of 0.005 to 0.05 µM.
On to `CCc1c(N2CCN(C(=O)C(F)(F)F)CC2)c(=O)n2nc(-c3ccnc(OC)c3)nc2n1CC(=O)Nc1ccc(C(F)(F)F)cc1Cl` [Compound I-47, N-[2-chloro-4-(trifluoromethyl)phenyl]-2-[5-ethyl-2-(2-methoxypyridin-4-yl)-7-oxo-6-[4-(2,2,2-trifluoroacetyl)piperazin-1-yl]-4H,7H-[1,2,4]triazolo[1,5-a]pyrimidin-4-yl]acetamide], for which the IC50 is 0.05 to 0.1 µM.
The compound `CCc1c(N2CCN(C(=O)c3ncnc(C)c3O)CC2)c(=O)n2nc(-c3cnn(C4CC4)c3)nc2n1CC(=O)Nc1ccc(C(F)(F)F)cc1Cl` [Compound I-32, N-[2-chloro-4-(trifluoromethyl)phenyl]-2-[2-(1-cyclopropyl-1H-pyrazol-4-yl)-5-ethyl-6-[4-(5-hydroxy-6-methylpyrimidine-4-carbonyl)piperazin-1-yl]-7-oxo-4H,7H-[1,2,4]triazolo[1,5-a]pyrimidin-4-yl]acetamide] had an IC50 of 0.005 to 0.05 µM.
